Measurements from patent publication US20030175810A1, “Assay method and system for identification of P2Y receptor agonists and antagonists” (priority 2000, published 2003).

Legend:
P2Y1 receptor = biological target: T1, P2Y1 receptor (Homo sapiens, UniProt P47900); assay: steady state GTP hydrolysis by purified P2Y1-R reconstituted with Gα11 and Gβ1γ2 in proteoliposomes; assay type: biochemical
T1 construct: hexahistidine; made in house; host or cells: baculovirus / Sf9 insect cells are named only as a preferred embodiment
Experimental: Purified human P2Y1-R, Gα11, and Gβ1y2 were reconstituted in phospholipid vesicles.
In a glass tube, the following lipid solutions, which are made by solubilizing the lipids in chloroform, are combined: 11 μl PE (10 mg/ml), 7 μl PS (10 mg/ml), 4 μl cholesteryl hemisuccinate (2 mM). The mixture is dried under a stream of N2 or argon to prevent oxidation. The lipids are then dissolved in a buffer containing deoxycholate at 0.4% and sonicated to ensure complete solubilization. Proteins are added sequentially: 50 pmol of the appropriate G protein α subunit, 150 pmol Gβγ and 15 pmol of P2Y receptor. The mixture is passed over a sizing column to isolate the vesicles from the single components and the detergent. Isolated vesicles can then used for the GTP hydrolysis assays for which they can be diluted depending on their quality.
(§1) In a steady state embodiment of the present invention, vesicles are combined with agonists, GAP proteins γ-[^32P] labeled GTP, all in an appropriate buffer system. The assay is then incubated at between 20° C. and 30° C. for various times. P2Y receptor-promoted activity is measured as released ^32P, which is separated from [γ-^32P]GTP after the assay is halted by transfer to ice and addition of ice cold 5% slurry or activated charcoal in 20 mM phosphoric acid. See Biddlecome et al., J. Biol. Chem. 271: 7999-8007.
The P2Y1 receptor was expressed, purified and reconstituted into vesicles as described herein. GTP hydrolysis was measured by incubation of vesicles with 2 μM [γ^32P]GTP and quantitation of released [^32P]Pi.

[1] = system: P2Y1 receptor/Gαq/β1γ2 vesicles; assay: promotion of 2MeSADP-stimulated GTPase activity of P2Y1 receptor/Gαq/β1γ2 vesicles; assay type: biochemical; settings: 1 μM 2MeSADP, FIG. 4 and 5
Experimental: Purified P2Y1-R was reconstituted with Gαq and Gβ1y2.
FIG. 5 is a line graph depicting promotion of 2MeSADP-stimulated GTP hydrolysis by phospholipase C-β1. P2Y1-R was reconstituted with Gαq and Gβ1y2.
as §1
The selectivity of the P2Y1 receptor for coupling to various G proteins, and the selectivity of RGS proteins and phospholipase C-β isoenzymes for promoting GTPase activities were studied.

T1 sequence (P47900 whole entry): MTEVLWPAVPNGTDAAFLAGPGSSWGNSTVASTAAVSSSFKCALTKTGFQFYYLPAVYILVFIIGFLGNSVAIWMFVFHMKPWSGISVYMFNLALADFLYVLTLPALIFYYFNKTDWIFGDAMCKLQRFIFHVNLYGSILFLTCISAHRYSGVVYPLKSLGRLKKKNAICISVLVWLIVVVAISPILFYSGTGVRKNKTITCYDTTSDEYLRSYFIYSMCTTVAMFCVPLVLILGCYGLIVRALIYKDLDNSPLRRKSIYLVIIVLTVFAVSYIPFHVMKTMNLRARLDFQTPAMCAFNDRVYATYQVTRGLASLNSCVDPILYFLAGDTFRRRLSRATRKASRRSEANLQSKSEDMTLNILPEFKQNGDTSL

2-methylthioadenosine 5′-diphosphate [2MeSADP]
stimulation of GTPase activity over basal (P2Y1 receptor; agonist together with RGS4, FIG. 2A): up to 100 fold
EC70 concentration of agonist (P2Y1 receptor; concentration used to identify antagonists): approximately 50 nM
hydrolysis of GTP on addition of agonist (P2Y1 receptor; in the presence of RGS4, FIG. 1): marked increase

Nc1ncnc2c1ncn2[C@@H]1O[C@H](COP(=O)(O)OP(=O)(O)OP(=O)(O)O)[C@@H](O)[C@H]1O [ATP, adenosine 5′-triphosphate]
agonist versus antagonist nature at the P2Y1 receptor (P2Y1 receptor; in the absence of receptor reserve): pure antagonist

B1: Phospholipase C-β1: phospholipase C-β isoenzyme stimulating GTPase activity of Gαq (protein, UniProt Q9NQ66 1-1216, looked up)
1-phosphatidylinositol …: MAGAQPGVHALQLKPVCVSDSLKKGTKFVKWDDDSTIVTPIILRTDPQGFFFYWTDQNKETELLDLSLVKDARCGRHAKAPKDPKLRELLDVGNIGRLEQRMITVVYGPDLVNISHLNLVAFQEEVAKEWTNEVFSLATNLLAQNMSRDAFLEKAYTKLKLQVTPEGRIPLKNIYRLFSADRKRVETALEACSLPSSRNDSIPQEDFTPEVYRVFLNNLCPRPEIDNIFSEFGAKSKPYLTVDQMMDFINLKQRDPRLNEILYPPLKQEQVQVLIEKYEPNNSLARKGQISVDGFMRYLSGEENGVVSPEKLDLNEDMSQPLSHYFINSSHNTYLTAGQLAGNSSVEMYRQVLLSGCRCVELDCWKGRTAEEEPVITHGFTMTTEISFKEVIEAIAECAFKTSPFPILLSFENHVDSPKQQAKMAEYCRLIFGDALLMEPLEKYPLESGVPLPSPMDLMYKILVKNKKKSHKSSEGSGKKKLSEQASNTYSDSSSMFEPSSPGAGEADTESDDDDDDDDCKKSSMDEGTAGSEAMATEEMSNLVNYIQPVKFESFEISKKRNKSFEMSSFVETKGLEQLTKSPVEFVEYNKMQLSRIYPKGTRVDSSNYMPQLFWNAGCQMVALNFQTMDLAMQINMGMYEYNGKSGYRLKPEFMRRPDKHFDPFTEGIVDGIVANTLSVKIISGQFLSDKKVGTYVEVDMFGLPVDTRRKAFKTKTSQGNAVNPVWEEEPIVFKKVVLPTLACLRIAVYEEGGKFIGHRILPVQAIRPGYHYICLRNERNQPLTLPAVFVYIEVKDYVPDTYADVIEALSNPIRYVNLMEQRAKQLAALTLEDEEEVKKEADPGETPSEAPSEARTTPAENGVNHTTTLTPKPPSQALHSQPAPGSVKAPAKTEDLIQSVLTEVEAQTIEELKQQKSFVKLQKKHYKEMKDLVKRHHKKTTDLIKEHTTKYNEIQNDYLRRRAALEKSAKKDSKKKSEPSSPDHGSSTIEQDLAALDAEMTQKLIDLKDKQQQQLLNLRQEQYYSEKYQKREHIKLLIQKLTDVAEECQNNQLKKLKEICEKEKKELKKKMDKKRQEKITEAKSKDKSQMEEEKTEMIRSYIQEVVQYIKRLEEAQSKRQEKLVEKHKEIRQQILDEKPKLQVELEQEYQDKFKRLPLEILEFVQEAMKGKISEDSNHGSAPLSLSSDPGKVNHKTPSSEELGGDIPGKEFDTPL
promotion of GTPase activity (potency and efficacy in words) [1]: potent and efficacious stimulator
